The test system of this assay is CD8+ T cells from HLA-B*44:02, HLA-B*44:03, or HLA-B*18:01 individuals. It counts as cell-based, human. To be noted: ICS. An excerpt: Fig. 1 NP338 elicits robust CD8^+ T cell responses only in the context of HLA-B*37:01. a–d Crystal structures of a HLA-B*37:01 (purple), b HLA-B*18:01 (blue), and c HLA-B*44:05 (yellow) in complex with NP338 WT (represented in black stick). d is showing an overlay of the three peptide–HLA complexes in cartoon representation, with NP338 colored accordingly to the bound HLA, namely, purple (HLA-B*37:01), blue (HLA-B*18:01), and yellow (HLA-B*44:05). e–g PBMCs from HLA-B*37:01^+ donors (n = 5), HLA-B*44:02^+ donors (n = 5), HLA-B*44:03^+ donors (n = 5), or HLA-B*18:01^+ donors (n = 5) were stimulated with a pool of NP338 peptides (10 μM each peptide, 30 μM total), and specificity was assessed in an ICS assay against 3 μM NP338 pool (1 μM each peptide, HLA-B*44:02^+ donors) directly into the well or 30 μM (10 μM each peptide, all other donors) NP338-pooled pulsed APC lines (HLA-B*37:01, HLA-B*44:03, and HLA-B*18:01). CD8^+ T cells are gated on lymphocytes, singlets, live^+ (when stained with the second antibody cocktail only) CD3^mid-high, CD8^+ T cells; as per Supplementary Fig. 2a. e Representative dot plots of IFNγ^+TNFα^+ production by pooled CD8^+ T cell lines derived from HLA-B*37:01^+, HLA-B*44:02^+, HLA-B*44:03^+, or HLA-B*18:01^+ donors, towards a pool of NP338 peptides. […]

As to `CCCCCCCCCCCCCC(=O)O[C@@H]1[C@@H](C)[C@@]2(O)[C@@H](C=C(CO)C[C@]3(O)C(=O)C(C)=C[C@@H]23)[C@@H]2C(C)(C)[C@]12OC(C)=O` [phorbol 12-myristate 13-acetate], the “CD8+ T cell response to non-specific stimulation” value is “responded strongly”.

Concanavalin A: the “CD8+ T cell response to non-specific stimulation” value is given as “responded strongly”.

Source of the values: PMC6303473 (Nature Communications, 2018).
